Each structure is given as a SMILES string.

For 56 compounds, IC50 results are on record in patent US6787651B2, “Substituted indoles, pharmaceutical compounds containing such indoles and their use as PPAR-γ binding agents” (SmithKline Beecham Corporation, priority 2000, dated 2004).

The experiment has as its target T1, PPARγ ligand binding domain (LBD) (amino acids 195-475) (Homo sapiens, UniProt P37231).
T1 construct: polyHis; made in house; host or cells: Escherichia coli
T1 sequence (P37231 195-475 isoform P37231-2): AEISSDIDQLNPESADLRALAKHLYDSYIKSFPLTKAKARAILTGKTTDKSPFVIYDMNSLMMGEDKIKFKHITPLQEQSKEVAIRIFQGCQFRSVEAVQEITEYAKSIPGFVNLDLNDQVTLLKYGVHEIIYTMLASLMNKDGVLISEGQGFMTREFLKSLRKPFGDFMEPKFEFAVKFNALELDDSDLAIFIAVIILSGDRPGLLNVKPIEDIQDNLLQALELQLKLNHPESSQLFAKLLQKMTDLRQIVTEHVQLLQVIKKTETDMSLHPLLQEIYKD
Description: PPAR-γ binding assay (spin plate / gel filtration binding assay, displacement of [3H]BRL 49653). Particulars: read-out: IC50 range in the PPAR-γ Binding Assay. As for the experimental part:
The activity of a given compound in binding to PPAR-γ can be assayed routinely according to procedures known in the art. […] The PPAR-γ binding assay described below was used to determine the PPAR-γ binding activities of the compounds of the invention.
Compounds were tested for their ability to bind to PPARγ using a spin plate assay (gel filtration binding assay). […] Each compound was tested in triplicate. […] The plates were centrifuged (Beckman GS-6R) at 2500 rpm for 5 minutes, 170 μl Scitisafe® scintillation fluid (Fisher) was added to each well, the plates were sealed, and after 1 hour, were counted in a Wallac MicroBeta counter. The amount of nonspecific binding, as assessed by control wells containing 10 μM of the corresponding unlabeled ligand, was subtracted from each data point. For each compound tested, the data was averaged and plots of ligand concentration versus CPM of radioligand bound were constructed. Apparent IC50 values were estimated from nonlinear least-squares fit of the data assuming simple competitive binding.
As to `O=C(O)c1c(-c2cc3ccccc3s2)c2ccccc2n1Cc1cccc(C(F)(F)F)c1` [Example 232, 3-(Benzothien-2-yl)-1-[3-(trifluoromethyl)benzyl)-indole-2-carboxylic acid], the IC50 (in general, the concentration at which inhibition is half-maximal) fell in the range of 0.1 to 9.99 nM. In the case of `COc1ccc(-c2c(C(=O)O)n(Cc3cccc(OC)c3)c3ccc(OCCN(C)c4nc5ccccc5o4)cc23)cc1` [Example 233] it was 10 to 10000 nM.

For the compound `COc1ccc(-c2c(C(=O)O)n(Cc3cccc(C(F)(F)F)c3)c3ccc(OCCCN(C)c4nc5ccccc5o4)cc23)cc1` [Example 234], the half-inhibitory concentration (IC50) was 0.1 to 9.99 nM.

Consider `CC1(C)COC(c2c(C(=O)O)n(Cc3cccc(C(F)(F)F)c3)c3ccccc23)=N1` [Example 238], for which the IC50 was in the range of 10 to 10000 nM. With `O=C(O)c1c(C2=NC3(CCCC3)CO2)c2ccccc2n1Cc1cccc(C(F)(F)F)c1` [Example 239], the IC50 was in the range of 10 to 10000 nM. In the case of `O=C(O)c1c(C(=O)N2CCOCC2)c2ccccc2n1Cc1cccc(C(F)(F)F)c1` [Example 245] it was 10 to 10000 nM; in that of `CN1CCN(C(=O)c2c(C(=O)O)n(Cc3cccc(C(F)(F)F)c3)c3ccccc23)CC1` [Example 246], 10 to 10000 nM; in that of `O=C(O)c1c(-c2nc3ccccc3o2)c2ccccc2n1Cc1cccc(C(F)(F)F)c1` [Example 247], 10 to 10000 nM. In the case of `O=C(O)c1c(-c2nc3cc(Cl)ccc3o2)c2ccccc2n1Cc1cccc(C(F)(F)F)c1` [Example 248] it was 10 to 10000 nM; in that of `CC(C)(C)c1ccc2oc(-c3c(C(=O)O)n(Cc4cccc(C(F)(F)F)c4)c4ccccc34)nc2c1` [Example 249], 0.1 to 9.99 nM; in that of `O=C(O)c1c(-c2nc3ccccc3s2)c2ccccc2n1Cc1cccc(OCC2CC2)c1` [Example 250], 0.1 to 9.99 nM. With `O=C(O)c1[nH]c2c(C(=O)c3ccccc3)cccc2c1-c1ccccc1` [Example 251], the IC50 was 10 to 10000 nM.

For the compound `COc1cccc(Cn2c(C(=O)O)c(-c3ccc(C(C)(C)C)cc3)c3cccc(C(=O)C4CC4)c32)c1` [Example 252], the half-maximal inhibitory concentration (IC50) was 10 to 10000 nM. Turning to `COc1cccc(Cn2c(C(=O)O)c(-c3ccc(C(C)(C)C)cc3)c3cc(CC4CC4)ccc32)c1` [Example 253], the IC50 lay in the range of 0.1 to 9.99 nM. The same measure for `COc1cccc(Cn2c(C(=O)O)c(-c3ccc(C(C)(C)C)cc3)c3cc(C(=O)C4CC4)ccc32)c1` [Example 254]: 10 to 10000 nM. On to `COc1cccc(Cn2c(C(=O)O)c(-c3ccc(C(C)(C)C)cc3)c3cc(C(O)C4CC4)ccc32)c1` (centres unmarked) [Example 255], for which the IC50 lay in the range of 10 to 10000 nM. The same measure for `COc1cccc(Cn2c(C(=O)O)c(-c3ccc(C(C)(C)C)cc3)c3cccc(CC4CC4)c32)c1` [Example 256]: 10 to 10000 nM. The same measure for `O=C(O)c1c(-c2nc3cc(C(F)(F)F)ccc3s2)c2ccccc2n1Cc1cccc(C(F)(F)F)c1` [Example 257]: 0.1 to 9.99 nM; for `COc1cccc(Cn2c(C(=O)O)c(-c3ccc(C4(C)CC4)cc3)c3ccccc32)c1` [Example 258]: 0.1 to 9.99 nM.

With `O=C(O)c1c(-c2ccc(C3CC3)cc2)c2ccccc2n1Cc1cccc(C(F)(F)F)c1` [Example 260], the half-inhibitory concentration (IC50) lay in the range of 0.1 to 9.99 nM. In the case of `COc1cccc(Cn2c(C(=O)O)c(-c3ccc(C4CC4)cc3)c3ccccc32)c1` [Example 261], the concentration for half-maximal inhibition (IC50) was 0.1 to 9.99 nM.

In the case of `O=C(O)c1c(-c2ccc(SC3CC3)cc2)c2ccccc2n1Cc1cccc(C(F)(F)F)c1` [Example 262], the IC50 lay in the range of 0.1 to 9.99 nM. Turning to `COc1cccc(Cn2c(C(=O)O)c(-c3ccc(SC4CC4)cc3)c3ccccc32)c1` [Example 263], the IC50 lay within 0.1 to 9.99 nM. For the compound `COc1cccc(Cn2c(C(=O)O)c(-c3ccc(OCC4CC4)cc3)c3cc(OCC(=O)O)ccc32)c1` [Example 267], the IC50 lay in the range of 10 to 10000 nM. For `CCOCCOc1ccc2c(c1)c(-c1cccc(OCC3CC3)c1)c(C(=O)O)n2Cc1cccc(OC)c1` [Example 271], the IC50 is 0.1 to 9.99 nM.

For the compound `COc1cccc(Cn2c(C(=O)O)c(-c3cccc(OCC4CC4)c3)c3cc(OCCOCc4ccccc4)ccc32)c1` [Example 272], the IC50 was in the range of 0.1 to 9.99 nM. In the case of `COc1cccc(Cn2c(C(=O)O)c(-c3ccc(C(C)(C)C)cc3)c3cc(CCOCC4CC4)ccc32)c1` [Example 275] it was 0.1 to 9.99 nM; in that of `Cc1sc(-c2ccccc2)nc1CCOc1ccc2c(c1)cc(C(=O)O)n2CC1CCCO1` (centres unmarked) [Example 276], 10 to 10000 nM.

Consider `CN1CCCC1CCOc1ccc2cc(C(=O)O)n(Cc3cccc(C(F)(F)F)c3)c2c1` (centres unmarked) [Example 280], for which the IC50 is 10 to 10000 nM. The same measure for `COc1ccc(-c2c(C(=O)O)n(CC(=O)c3ccccc3)c3ccccc23)cc1` [Example 281]: 10 to 10000 nM; for `COc1cccc(-c2c(C(=O)O)n(Cc3cccc(OCC4CC4)c3)c3ccccc23)c1` [Example 283]: 0.1 to 9.99 nM; for `COc1cccc(Cn2c(C(=O)O)c(-c3ccc(C(=O)N(C)C4CCCC4)cc3)c3ccccc32)c1` [Example 304]: 0.1 to 9.99 nM. In the case of `COc1cccc(Cn2c(C(=O)O)c(-c3ccc(OCC4CC4)cc3)c3ccccc32)c1` [Example 305, 3-[4-(Cyclopropylmethoxy)phenyl]-1-(3-methoxybenzyl)-1H-indole-2-carboxylic acid] it was 0.1 to 9.99 nM; in that of `COc1cccc(Cn2c(C(=O)O)c(-c3ccc(OCC4CCCCO4)cc3)c3ccccc32)c1` (centres unmarked) [Example 306], 10 to 10000 nM; in that of `COc1cccc(Cn2c(C(=O)O)c(-c3ccc(OCc4ccc5ccccc5n4)cc3)c3ccccc32)c1` [Example 307], 0.1 to 9.99 nM. In the case of `O=C(O)c1c(-c2ccc(OCC3CC3)cc2)c2ccccc2n1Cc1cccc(C(F)(F)F)c1` [Example 308] it was 0.1 to 9.99 nM. For `COc1cccc(Cn2c(C(=O)O)c(-c3ccc(OCC(=O)c4ccc(N5CCCC5)cc4)cc3)c3ccccc32)c1` [Example 310], the half-maximal inhibitory concentration (IC50) is 10 to 10000 nM. Regarding `COCCOc1ccc2c(c1)c(-c1ccc(OCC3CC3)cc1)c(C(=O)O)n2Cc1cccc(OC)c1` [Example 312], the concentration for half-maximal inhibition (IC50) was in the range of 0.1 to 9.99 nM.

With `COc1cccc(Cn2c(C(=O)O)c(-c3ccc(OCC4CC4)cc3)c3cc(OCC=O)ccc32)c1` [Example 313], the half-maximal inhibitory concentration (IC50) was in the range of 0.1 to 9.99 nM.

`COc1cccc(Cn2c(C(=O)O)c(-c3ccc(OCC4CC4)cc3)c3cc(OCC4CCC4)ccc32)c1` [Example 314]: the IC50 was in the range of 0.1 to 9.99 nM. For the compound `COc1cccc(COc2ccc3c(c2)c(-c2ccc(OCC4CC4)cc2)c(C(=O)O)n3Cc2cccc(OC)c2)c1` [Example 315], the IC50 is 0.1 to 9.99 nM. The same measure for `COc1cccc(Cn2c(C(=O)O)c(-c3ccc(OCC4CC4)cc3)c3cc(OCc4ccc(C(C)(C)C)cc4)ccc32)c1` [Example 318]: 10 to 10000 nM.

With `COc1cccc(Cn2c(C(=O)O)c(-c3ccc(OCC4CC4)cc3)c3cc(OCc4ccc(C(F)(F)F)cc4)ccc32)c1` [Example 319], the half-inhibitory concentration (IC50) lay within 10 to 10000 nM. `COc1cccc(Cn2c(C(=O)O)c(-c3ccc(OCC4CC4)cc3)c3cc(OCCCc4ccccc4)ccc32)c1` [Example 320]: the IC50 lay within 0.1 to 9.99 nM.

As for `COc1cccc(Cn2c(C(=O)O)c(-c3ccc(OCC4CC4)cc3)c3cc(OCc4cccc(C(F)(F)F)c4)ccc32)c1` [Example 321], the IC50 was in the range of 0.1 to 9.99 nM.

`COc1cccc(Cn2c(C(=O)O)c(-c3ccc(OCC4CC4)cc3)c3cc(OCc4ccc(C(=O)O)cc4)ccc32)c1` [Example 322]: the half-inhibitory concentration (IC50) was 10 to 10000 nM. In the case of `COc1cccc(Cn2c(C(=O)O)c(-c3cccc(NC(=O)C4CC4)c3)c3ccccc32)c1` [Example 326], the half-inhibitory concentration (IC50) lay within 10 to 10000 nM. In the case of `CCOc1ccc2c(c1)c(-c1ccc(OCC3CC3)cc1)c(C(=O)O)n2Cc1cccc(OC)c1` [Example 330, 3-[4-(Cyclopropylmethoxy)phenyl]-5-ethoxy-1-(3-methoxybenzyl)-1H-indole-2-carboxylic acid] it was 0.1 to 9.99 nM; in that of `CCCOc1ccc2c(c1)c(-c1ccc(OCC3CC3)cc1)c(C(=O)O)n2Cc1cccc(OC)c1` [Example 331], 0.1 to 9.99 nM. For the compound `CCCCOc1ccc2c(c1)c(-c1ccc(OCC3CC3)cc1)c(C(=O)O)n2Cc1cccc(OC)c1` [Example 332], the half-maximal inhibitory concentration (IC50) is 0.1 to 9.99 nM.

Take `C=CCOc1ccc2c(c1)c(-c1ccc(OCC3CC3)cc1)c(C(=O)O)n2Cc1cccc(OC)c1` [Example 333]: the concentration for half-maximal inhibition (IC50) is 10 to 10000 nM. The same measure for `COc1cccc(Cn2c(C(=O)O)c(-c3ccc(OCC4CC4)cc3)c3cc(OCC4CC4)ccc32)c1` [Example 334]: 0.1 to 9.99 nM; for `COc1ccc(-c2c(C(=O)O)n(S(=O)(=O)c3cccc(C(F)(F)F)c3)c3ccccc23)cc1` [Example 337, 3-(4-Methoxyphenyl)-1-{[3-(trifluoromethyl)phenyl]sulfonyl}indole-2-carboxylic acid]: 10 to 10000 nM. In the case of `COc1ccc(-c2c(C(=O)O)n(C(=O)c3cccc(C(F)(F)F)c3)c3ccccc23)cc1` [Example 338, 3-(4-Methoxyphenyl)-1-{[3-(trifluoromethyl)phenyl]carbonyl}indole-2-carboxylic Acid], the IC50 lay in the range of 10 to 10000 nM. In the case of `O=C(O)c1c(-c2cccc(OCC3CC3)c2)c2ccccc2n1Cc1cccc(OC(F)(F)F)c1` [Example 340] it was 0.1 to 9.99 nM; in that of `CC(=O)c1cnc(-c2c(C(=O)O)n(Cc3cccc(C(F)(F)F)c3)c3ccccc23)s1` [Example 342], 0.1 to 9.99 nM.
